Where two headings read alike, the source gives them in different places.
Tests used:
[1] = tested on: Staphylococcus aureus FDA 209P; test: MIC by serial dilution method on agar plate; format: cell-based
Source text: (§1) The microorganisms were used in a concentration of 1×10^8 cells/ml (O.D. 660 mμ, 0.07-0.16) and 1×10^6 cells/ml (100 folds dilution).

[2] = tested on: Staphylococcus pyrogens IID S-23; test: MIC by serial dilution method on agar plate; format: cell-based
Source text: as §1

[3] = tested on: Acinetobacter calcoaceticus AC-54; test: MIC by serial dilution method on agar plate; format: cell-based
Source text: (§2) Chemotherapy, 22, 1126-1128 (1974)]. The microorganisms were used in a concentration of 1×10^8 cells/ml (O.D. 660 mμ, 0.07-0.16) and 1×10^6 cells/ml (100 folds dilution).

[4] = tested on: Bacillus subtilis ATCC 6633; test: MIC by serial dilution method on agar plate; format: cell-based
Source text: as §2

[5] = tested on: Escherichia coli NIHJ JC-2; test: MIC by serial dilution method on agar plate; format: cell-based
Source text: as §2

[6] = tested on: Escherichia coli No. 29; test: MIC by serial dilution method on agar plate; format: cell-based
Source text: as §2

[7] = tested on: Klebsiella pneumoniae NCTC 9632; test: MIC by serial dilution method on agar plate; format: cell-based
Source text: as §2

[8] = tested on: Proteus inconstans IFO 12930; test: MIC by serial dilution method on agar plate; format: cell-based
Source text: as §2

[9] = tested on: Proteus morganii IID Kono; test: MIC by serial dilution method on agar plate; format: cell-based
Source text: as §2

[10] = tested on: Pseudomonas aeruginosa ATCC 10145; test: MIC by serial dilution method on agar plate; format: cell-based
Source text: as §2

[11] = tested on: Pseudomonas aeruginosa E-2; test: MIC by serial dilution method on agar plate; format: cell-based
Source text: as §2

[12] = tested on: Serratia marcescens IFO 12648; test: MIC by serial dilution method on agar plate; format: cell-based
Source text: as §2

[13] = tested on: Streptococcus faecalis IFO 12580; test: MIC by serial dilution method on agar plate; format: cell-based
Source text: as §2

[14] = Absorption by oral administration in monkey (plasma concentration, thin layer cup bio-assay); format: in vivo; settings: 10 mg/kg;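 note: plasma concentration in γ/ml (µg/mL) rather than the printed ng/mL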
Procedure: The test compounds were dissolved in 0.1N hydrochloric acid or suspended in 0.5% sodium carboxymethyl cellulose solution. The solution or suspension was administered into stomach of monkey (two monkeys) with cathetel. After the administration of test compounds, the blood was collected from the lower limbs vein at a fixed interval with a syringe treated with heparin. The collected blood was centrifuged at 3,000 r.p.m. for 10 minutes to separate the plasma. The concentration of the test compound was measured by a thin layer cup method (a bio-assay), wherein Bacillus subtilis ATCC 6633 was used as a bacteria for determination. Based on a standard curve, the concentration of test compound in plasma was calculated.

## CN1CCN(c2c(F)cc3c(=O)c(C(=O)O)cn(-c4ccc(O)cc4)c3c2F)CC1 [Test Compd. No. 1, 6,8-Difluoro-1-(4-hydroxyphenyl)-7-(4-methyl-1-piperazinyl)-1,4-dihydro-4-oxoquinoline-3-carboxylic acid]
[1]; 1 × 10^6 cells/ml
  minimum inhibitory concentration (MIC): < 0.048
[1]; 1 × 10^8 cells/ml
  minimum inhibitory concentration (MIC): < 0.048
[2]; 1 × 10^6 cells/ml
  minimum inhibitory concentration (MIC): 0.39
[2]; 1 × 10^8 cells/ml
  minimum inhibitory concentration (MIC): 0.781
[3]; 1 × 10^6 cells/ml
  minimum inhibitory concentration (MIC): < 0.048
[3]; 1 × 10^8 cells/ml
  minimum inhibitory concentration (MIC): 0.097
[4]; 1 × 10^6 cells/ml
  minimum inhibitory concentration (MIC): < 0.048
[4]; 1 × 10^8 cells/ml
  minimum inhibitory concentration (MIC): < 0.048
[5]; 1 × 10^6 cells/ml
  minimum inhibitory concentration (MIC): < 0.048
[5]; 1 × 10^8 cells/ml
  minimum inhibitory concentration (MIC): < 0.048
[6]; 1 × 10^6 cells/ml
  minimum inhibitory concentration (MIC): < 0.048
[6]; 1 × 10^8 cells/ml
  minimum inhibitory concentration (MIC): < 0.048
[7]; 1 × 10^6 cells/ml
  minimum inhibitory concentration (MIC): < 0.048
[7]; 1 × 10^8 cells/ml
  minimum inhibitory concentration (MIC): < 0.048
[8]; 1 × 10^6 cells/ml
  minimum inhibitory concentration (MIC): 0.097
[8]; 1 × 10^8 cells/ml
  minimum inhibitory concentration (MIC): 0.195
[9]; 1 × 10^6 cells/ml
  minimum inhibitory concentration (MIC): < 0.048
[9]; 1 × 10^8 cells/ml
  minimum inhibitory concentration (MIC): 0.097
[10]; 1 × 10^6 cells/ml
  minimum inhibitory concentration (MIC): 0.195
[10]; 1 × 10^8 cells/ml
  minimum inhibitory concentration (MIC): 0.39
[11]; 1 × 10^6 cells/ml
  minimum inhibitory concentration (MIC): 0.097
[11]; 1 × 10^8 cells/ml
  minimum inhibitory concentration (MIC): 0.195
[12]; 1 × 10^6 cells/ml
  minimum inhibitory concentration (MIC): < 0.048
[12]; 1 × 10^8 cells/ml
  minimum inhibitory concentration (MIC): < 0.048
[13]; 1 × 10^6 cells/ml
  minimum inhibitory concentration (MIC): 0.097
[13]; 1 × 10^8 cells/ml
  minimum inhibitory concentration (MIC): 0.195
[14]; Run 1, 0.5 hour, read-out: Amount of test compd. in plasma
  concentration at 0.5 h: 2350 ng/mL
[14]; Run 1, 1 hour, read-out: Amount of test compd. in plasma
  concentration at 1 h: 4260 ng/mL
[14]; Run 1, 2 hour, read-out: Amount of test compd. in plasma
  concentration at 2 h: 1940 ng/mL
[14]; Run 1, 4 hour, read-out: Amount of test compd. in plasma
  concentration at 4 h: 720 ng/mL
[14]; Run 1, 7 hour, read-out: Amount of test compd. in plasma
  concentration at 7 h: < 200 ng/mL
[14]; Run 1, 24 hour, read-out: Amount of test compd. in plasma
  concentration at 24 h: < 200 ng/mL
[14]; Run 2, 0.5 hour, read-out: Amount of test compd. in plasma
  concentration at 0.5 h: < 200 ng/mL
[14]; Run 2, 1 hour, read-out: Amount of test compd. in plasma
  concentration at 1 h: 2180 ng/mL
[14]; Run 2, 2 hour, read-out: Amount of test compd. in plasma
  concentration at 2 h: 1120 ng/mL
[14]; Run 2, 4 hour, read-out: Amount of test compd. in plasma
  concentration at 4 h: 1120 ng/mL
[14]; Run 2, 7 hour, read-out: Amount of test compd. in plasma
  concentration at 7 h: < 200 ng/mL
[14]; Run 2, 24 hour, read-out: Amount of test compd. in plasma
  concentration at 24 h: < 200 ng/mL
[14]; average of two runs, 0.5 hour, read-out: Amount of test compd. in plasma, Average
  concentration at 0.5 h: < 1370 ng/mL
[14]; average of two runs, 1 hour, read-out: Amount of test compd. in plasma, Average
  concentration at 1 h: 3220 ng/mL
[14]; average of two runs, 2 hour, read-out: Amount of test compd. in plasma, Average
  concentration at 2 h: 1530 ng/mL
[14]; average of two runs, 4 hour, read-out: Amount of test compd. in plasma, Average
  concentration at 4 h: 920 ng/mL
[14]; average of two runs, 7 hour, read-out: Amount of test compd. in plasma, Average
  concentration at 7 h: < 390 ng/mL
[14]; average of two runs, 24 hour, read-out: Amount of test compd. in plasma, Average
  concentration at 24 h: < 390 ng/mL

## 6,8-Difluoro-1-(4-hydroxyphenyl)-7-(1-piperazinyl)-1,4-dihydro-4-oxoquinoline-3-carboxylic acid [Example 2]
[1]; 1 × 10^6 cells/ml
  minimum inhibitory concentration (MIC): 0.195
[1]; 1 × 10^8 cells/ml
  minimum inhibitory concentration (MIC): 0.39
[2]; 1 × 10^8 cells/ml
  minimum inhibitory concentration (MIC): 12.5
[3]; 1 × 10^6 cells/ml
  minimum inhibitory concentration (MIC): 0.195
[3]; 1 × 10^8 cells/ml
  minimum inhibitory concentration (MIC): 0.39
[4]; 1 × 10^6 cells/ml
  minimum inhibitory concentration (MIC): 0.097
[4]; 1 × 10^8 cells/ml
  minimum inhibitory concentration (MIC): 0.195
[5]; 1 × 10^6 cells/ml
  minimum inhibitory concentration (MIC): < 0.048
[5]; 1 × 10^8 cells/ml
  minimum inhibitory concentration (MIC): < 0.048
[6]; 1 × 10^6 cells/ml
  minimum inhibitory concentration (MIC): < 0.048
[6]; 1 × 10^8 cells/ml
  minimum inhibitory concentration (MIC): < 0.048
[7]; 1 × 10^6 cells/ml
  minimum inhibitory concentration (MIC): < 0.048
[7]; 1 × 10^8 cells/ml
  minimum inhibitory concentration (MIC): < 0.048
[8]; 1 × 10^6 cells/ml
  minimum inhibitory concentration (MIC): 0.195
[8]; 1 × 10^8 cells/ml
  minimum inhibitory concentration (MIC): 0.39
[9]; 1 × 10^6 cells/ml
  minimum inhibitory concentration (MIC): 0.048
[9]; 1 × 10^8 cells/ml
  minimum inhibitory concentration (MIC): 0.097
[10]; 1 × 10^6 cells/ml
  minimum inhibitory concentration (MIC): 0.781
[10]; 1 × 10^8 cells/ml
  minimum inhibitory concentration (MIC): 1.56
[11]; 1 × 10^6 cells/ml
  minimum inhibitory concentration (MIC): 0.781
[11]; 1 × 10^8 cells/ml
  minimum inhibitory concentration (MIC): 1.56
[12]; 1 × 10^6 cells/ml
  minimum inhibitory concentration (MIC): 0.097
[12]; 1 × 10^8 cells/ml
  minimum inhibitory concentration (MIC): 0.195
[13]; 1 × 10^6 cells/ml
  minimum inhibitory concentration (MIC): 3.12
[13]; 1 × 10^8 cells/ml
  minimum inhibitory concentration (MIC): 6.25

## 6,8-Difluoro-1-(4-fluorophenyl)-7-(1-piperazinyl)-1,4-dihydro-4-oxoquinoline-3-carboxylic acid [Test Compd. No. 2]
[1]; 1 × 10^6 cells/ml
  minimum inhibitory concentration (MIC): 0.195
[1]; 1 × 10^8 cells/ml
  minimum inhibitory concentration (MIC): 0.195
[2]; 1 × 10^8 cells/ml
  minimum inhibitory concentration (MIC): 6.25
[3]; 1 × 10^6 cells/ml
  minimum inhibitory concentration (MIC): 0.781
[3]; 1 × 10^8 cells/ml
  minimum inhibitory concentration (MIC): 1.56
[4]; 1 × 10^6 cells/ml
  minimum inhibitory concentration (MIC): 0.097
[4]; 1 × 10^8 cells/ml
  minimum inhibitory concentration (MIC): 0.195
[5]; 1 × 10^6 cells/ml
  minimum inhibitory concentration (MIC): < 0.048
[5]; 1 × 10^8 cells/ml
  minimum inhibitory concentration (MIC): < 0.048
[6]; 1 × 10^6 cells/ml
  minimum inhibitory concentration (MIC): < 0.048
[6]; 1 × 10^8 cells/ml
  minimum inhibitory concentration (MIC): < 0.048
[7]; 1 × 10^6 cells/ml
  minimum inhibitory concentration (MIC): 0.097
[7]; 1 × 10^8 cells/ml
  minimum inhibitory concentration (MIC): 0.195
[8]; 1 × 10^6 cells/ml
  minimum inhibitory concentration (MIC): 1.56
[8]; 1 × 10^8 cells/ml
  minimum inhibitory concentration (MIC): 3.12
[9]; 1 × 10^6 cells/ml
  minimum inhibitory concentration (MIC): 0.781
[9]; 1 × 10^8 cells/ml
  minimum inhibitory concentration (MIC): 1.56
[10]; 1 × 10^6 cells/ml
  minimum inhibitory concentration (MIC): 1.56
[10]; 1 × 10^8 cells/ml
  minimum inhibitory concentration (MIC): 1.56
[11]; 1 × 10^6 cells/ml
  minimum inhibitory concentration (MIC): 1.56
[11]; 1 × 10^8 cells/ml
  minimum inhibitory concentration (MIC): 1.56
[12]; 1 × 10^6 cells/ml
  minimum inhibitory concentration (MIC): 0.39
[12]; 1 × 10^8 cells/ml
  minimum inhibitory concentration (MIC): 0.781
[13]; 1 × 10^6 cells/ml
  minimum inhibitory concentration (MIC): 0.781
[13]; 1 × 10^8 cells/ml
  minimum inhibitory concentration (MIC): 1.56

Source: US4755513A, “Antimicrobial 1-substituted phenyl-4-oxoquinoline-3-carboxylic acid compounds” (Otsuka Pharmaceutical Company, Limited, priority 1985, dated 1988)
